Among the data in ChEMBL document CHEMBL5291721, “A preclinical secondary pharmacology resource illuminates target-adverse drug reaction associations of marketed drugs” (Nat Commun, 2023) are AC50 values, retold here.

Assay [1] has as its target Voltage-gated inwardly rectifying potassium channel KCNH2 (Homo sapiens, UniProt Q12809). The class given is functional. The following applies: read-out: AC50.
The target in assay [2] is T1, Prostaglandin G/H synthase 1 (Rattus norvegicus, UniProt Q63921).
T1 sequence (Q63921 whole entry): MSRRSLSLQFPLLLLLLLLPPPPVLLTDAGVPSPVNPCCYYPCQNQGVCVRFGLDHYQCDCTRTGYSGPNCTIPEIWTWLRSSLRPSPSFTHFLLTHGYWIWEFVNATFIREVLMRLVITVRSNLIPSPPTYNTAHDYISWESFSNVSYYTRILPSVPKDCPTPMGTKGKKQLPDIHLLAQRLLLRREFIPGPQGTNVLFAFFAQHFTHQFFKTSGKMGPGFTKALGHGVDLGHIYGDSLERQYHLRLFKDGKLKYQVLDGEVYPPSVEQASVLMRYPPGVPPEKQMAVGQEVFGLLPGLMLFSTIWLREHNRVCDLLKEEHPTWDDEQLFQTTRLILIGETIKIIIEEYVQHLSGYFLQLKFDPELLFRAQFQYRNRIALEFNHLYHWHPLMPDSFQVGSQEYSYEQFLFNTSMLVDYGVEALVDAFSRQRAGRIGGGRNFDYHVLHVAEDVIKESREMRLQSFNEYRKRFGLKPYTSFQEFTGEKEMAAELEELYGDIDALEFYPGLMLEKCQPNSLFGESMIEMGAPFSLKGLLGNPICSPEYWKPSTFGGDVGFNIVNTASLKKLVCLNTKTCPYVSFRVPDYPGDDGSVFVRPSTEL
The class given is functional.

The target in assay [3] is T2, Cholecystokinin receptor type A (Homo sapiens, UniProt P32238).
T2 sequence (P32238 whole entry): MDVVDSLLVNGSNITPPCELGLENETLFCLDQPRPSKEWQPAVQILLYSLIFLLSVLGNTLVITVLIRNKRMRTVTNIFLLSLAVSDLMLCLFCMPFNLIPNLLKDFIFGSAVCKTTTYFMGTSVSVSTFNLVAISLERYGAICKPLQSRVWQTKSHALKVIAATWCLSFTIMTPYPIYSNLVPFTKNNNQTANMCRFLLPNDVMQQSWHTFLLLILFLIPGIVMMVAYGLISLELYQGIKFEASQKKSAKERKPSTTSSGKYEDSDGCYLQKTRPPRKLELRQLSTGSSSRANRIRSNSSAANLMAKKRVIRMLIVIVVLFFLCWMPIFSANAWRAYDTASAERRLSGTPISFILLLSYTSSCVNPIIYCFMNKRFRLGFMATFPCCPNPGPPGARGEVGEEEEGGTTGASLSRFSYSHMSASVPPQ

A further assay has as its target Adenosine receptor A2a (Homo sapiens, UniProt P29274).
Assay [4] concerns the target T3, 5-hydroxytryptamine receptor 3A (Homo sapiens, UniProt P46098).
T3 sequence (P46098 whole entry): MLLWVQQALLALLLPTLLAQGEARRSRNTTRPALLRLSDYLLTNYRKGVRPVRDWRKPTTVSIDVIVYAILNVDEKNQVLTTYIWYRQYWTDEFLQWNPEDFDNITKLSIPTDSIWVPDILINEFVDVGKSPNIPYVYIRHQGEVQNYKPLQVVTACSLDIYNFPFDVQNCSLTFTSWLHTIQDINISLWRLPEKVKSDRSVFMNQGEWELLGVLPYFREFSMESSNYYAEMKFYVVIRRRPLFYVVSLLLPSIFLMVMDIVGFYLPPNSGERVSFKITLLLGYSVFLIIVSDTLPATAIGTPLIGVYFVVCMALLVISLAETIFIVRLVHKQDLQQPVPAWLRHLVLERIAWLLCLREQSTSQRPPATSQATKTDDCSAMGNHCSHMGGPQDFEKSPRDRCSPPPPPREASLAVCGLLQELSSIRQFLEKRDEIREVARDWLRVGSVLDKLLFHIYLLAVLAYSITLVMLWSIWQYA
The class given is functional.

Assay [5] concerns the target Delta-type opioid receptor (Homo sapiens, UniProt P41143).
Assay [6] addresses T4, Amine oxidase [flavin-containing] A (Homo sapiens, UniProt P21397).
T4 sequence (P21397 whole entry): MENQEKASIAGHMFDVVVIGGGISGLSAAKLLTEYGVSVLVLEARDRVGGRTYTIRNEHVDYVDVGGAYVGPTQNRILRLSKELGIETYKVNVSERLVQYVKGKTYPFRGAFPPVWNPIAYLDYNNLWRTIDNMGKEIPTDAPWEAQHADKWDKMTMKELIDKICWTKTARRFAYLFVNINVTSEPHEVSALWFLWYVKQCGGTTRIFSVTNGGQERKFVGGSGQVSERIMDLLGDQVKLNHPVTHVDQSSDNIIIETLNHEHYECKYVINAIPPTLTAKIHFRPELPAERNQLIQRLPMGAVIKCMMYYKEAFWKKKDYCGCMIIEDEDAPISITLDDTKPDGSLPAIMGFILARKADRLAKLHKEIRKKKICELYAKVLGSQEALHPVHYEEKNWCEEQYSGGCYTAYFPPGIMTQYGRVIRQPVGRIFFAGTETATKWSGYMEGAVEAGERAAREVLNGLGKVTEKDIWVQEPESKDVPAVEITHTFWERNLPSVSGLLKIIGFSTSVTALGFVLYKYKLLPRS
The format is functional.

Assay [7] has as its target 5-hydroxytryptamine receptor 2B (Homo sapiens, UniProt P41595). The format is functional, cell-based.
Assay [8] has as its target cGMP-inhibited 3',5'-cyclic phosphodiesterase 3A (Homo sapiens, UniProt Q14432). The class given is functional.
Assay [9] has as its target Gamma-aminobutyric acid receptor subunit alpha-1 (Rattus norvegicus, UniProt P62813). The class given is functional.
The target of assay [10] is T5, Alpha-2A adrenergic receptor (Homo sapiens, UniProt P08913).
T5 sequence (P08913 whole entry): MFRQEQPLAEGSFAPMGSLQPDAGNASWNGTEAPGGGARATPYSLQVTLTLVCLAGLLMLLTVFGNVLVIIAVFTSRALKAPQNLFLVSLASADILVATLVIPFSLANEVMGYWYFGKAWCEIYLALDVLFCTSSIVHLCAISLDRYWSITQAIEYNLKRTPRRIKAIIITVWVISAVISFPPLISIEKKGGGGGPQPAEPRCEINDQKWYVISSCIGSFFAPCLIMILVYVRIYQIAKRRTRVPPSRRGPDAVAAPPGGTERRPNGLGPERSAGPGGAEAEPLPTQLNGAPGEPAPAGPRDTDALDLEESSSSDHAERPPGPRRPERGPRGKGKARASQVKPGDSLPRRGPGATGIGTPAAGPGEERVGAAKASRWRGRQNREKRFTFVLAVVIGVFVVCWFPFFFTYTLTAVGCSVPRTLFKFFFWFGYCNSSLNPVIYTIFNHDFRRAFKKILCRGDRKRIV
The class given is functional, cell-based.

The target in assay [11] is T5, Alpha-2A adrenergic receptor. The format is functional, cell-based. The source holds these as a separate data set.

Each structure is given as a SMILES string.
Also: assay procedure not described here.

Chain of Voltage-gated inwardly rectifying potassium channel KCNH2 (Q12809 whole entry): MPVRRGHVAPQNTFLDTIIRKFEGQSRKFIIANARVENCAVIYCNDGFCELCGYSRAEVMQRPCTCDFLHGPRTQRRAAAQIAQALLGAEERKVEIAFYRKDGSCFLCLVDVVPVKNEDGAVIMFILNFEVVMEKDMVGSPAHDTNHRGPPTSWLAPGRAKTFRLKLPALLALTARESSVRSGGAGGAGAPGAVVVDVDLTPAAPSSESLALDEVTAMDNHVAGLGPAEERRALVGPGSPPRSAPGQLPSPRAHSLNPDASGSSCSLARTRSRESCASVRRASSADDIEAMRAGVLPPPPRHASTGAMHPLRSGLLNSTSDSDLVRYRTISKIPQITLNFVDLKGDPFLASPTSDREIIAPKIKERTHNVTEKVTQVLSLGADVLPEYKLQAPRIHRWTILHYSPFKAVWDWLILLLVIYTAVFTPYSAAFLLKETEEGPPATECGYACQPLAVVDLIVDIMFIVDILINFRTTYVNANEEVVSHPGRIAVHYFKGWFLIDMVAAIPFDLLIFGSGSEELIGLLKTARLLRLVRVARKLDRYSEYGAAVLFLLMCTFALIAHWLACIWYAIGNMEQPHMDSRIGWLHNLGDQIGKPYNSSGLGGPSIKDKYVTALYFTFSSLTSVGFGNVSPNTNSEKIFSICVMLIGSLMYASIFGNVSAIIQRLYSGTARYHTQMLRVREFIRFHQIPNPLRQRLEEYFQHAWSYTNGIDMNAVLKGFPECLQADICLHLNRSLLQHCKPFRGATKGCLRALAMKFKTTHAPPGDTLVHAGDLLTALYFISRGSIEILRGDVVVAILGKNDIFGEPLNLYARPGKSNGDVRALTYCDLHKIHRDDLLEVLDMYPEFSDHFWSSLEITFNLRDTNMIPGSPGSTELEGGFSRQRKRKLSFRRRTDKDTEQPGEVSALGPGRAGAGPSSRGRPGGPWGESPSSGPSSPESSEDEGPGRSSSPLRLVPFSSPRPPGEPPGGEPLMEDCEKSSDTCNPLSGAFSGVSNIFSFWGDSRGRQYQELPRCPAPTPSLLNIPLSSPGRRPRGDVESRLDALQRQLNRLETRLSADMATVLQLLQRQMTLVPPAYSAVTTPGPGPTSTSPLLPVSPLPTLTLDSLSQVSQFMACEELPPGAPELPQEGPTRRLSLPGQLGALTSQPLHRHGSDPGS
Chain of Delta-type opioid receptor (P41143 whole entry): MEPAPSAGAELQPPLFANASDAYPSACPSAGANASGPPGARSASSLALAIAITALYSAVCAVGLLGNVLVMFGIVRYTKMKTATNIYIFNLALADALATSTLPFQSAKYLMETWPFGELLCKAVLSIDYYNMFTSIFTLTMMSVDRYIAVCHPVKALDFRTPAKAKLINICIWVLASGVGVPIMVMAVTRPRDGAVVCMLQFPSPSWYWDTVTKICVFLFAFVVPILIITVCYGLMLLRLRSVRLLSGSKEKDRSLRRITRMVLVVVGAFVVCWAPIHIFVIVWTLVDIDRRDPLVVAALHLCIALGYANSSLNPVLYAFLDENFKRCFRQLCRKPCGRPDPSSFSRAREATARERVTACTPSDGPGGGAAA
Chain of Adenosine receptor A2a (P29274 whole entry): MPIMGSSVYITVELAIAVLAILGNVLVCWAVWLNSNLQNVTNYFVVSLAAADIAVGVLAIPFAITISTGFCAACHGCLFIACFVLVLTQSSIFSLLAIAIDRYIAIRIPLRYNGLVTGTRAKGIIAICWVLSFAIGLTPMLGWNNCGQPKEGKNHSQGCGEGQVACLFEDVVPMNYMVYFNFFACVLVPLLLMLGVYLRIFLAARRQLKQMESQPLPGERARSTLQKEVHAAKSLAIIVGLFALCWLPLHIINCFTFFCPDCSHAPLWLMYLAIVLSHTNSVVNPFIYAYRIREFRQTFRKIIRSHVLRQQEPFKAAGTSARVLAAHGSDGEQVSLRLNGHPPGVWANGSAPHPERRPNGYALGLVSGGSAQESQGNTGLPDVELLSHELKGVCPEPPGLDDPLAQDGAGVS
Chain of cGMP-inhibited 3',5'-cyclic phosphodiesterase 3A (Q14432 whole entry): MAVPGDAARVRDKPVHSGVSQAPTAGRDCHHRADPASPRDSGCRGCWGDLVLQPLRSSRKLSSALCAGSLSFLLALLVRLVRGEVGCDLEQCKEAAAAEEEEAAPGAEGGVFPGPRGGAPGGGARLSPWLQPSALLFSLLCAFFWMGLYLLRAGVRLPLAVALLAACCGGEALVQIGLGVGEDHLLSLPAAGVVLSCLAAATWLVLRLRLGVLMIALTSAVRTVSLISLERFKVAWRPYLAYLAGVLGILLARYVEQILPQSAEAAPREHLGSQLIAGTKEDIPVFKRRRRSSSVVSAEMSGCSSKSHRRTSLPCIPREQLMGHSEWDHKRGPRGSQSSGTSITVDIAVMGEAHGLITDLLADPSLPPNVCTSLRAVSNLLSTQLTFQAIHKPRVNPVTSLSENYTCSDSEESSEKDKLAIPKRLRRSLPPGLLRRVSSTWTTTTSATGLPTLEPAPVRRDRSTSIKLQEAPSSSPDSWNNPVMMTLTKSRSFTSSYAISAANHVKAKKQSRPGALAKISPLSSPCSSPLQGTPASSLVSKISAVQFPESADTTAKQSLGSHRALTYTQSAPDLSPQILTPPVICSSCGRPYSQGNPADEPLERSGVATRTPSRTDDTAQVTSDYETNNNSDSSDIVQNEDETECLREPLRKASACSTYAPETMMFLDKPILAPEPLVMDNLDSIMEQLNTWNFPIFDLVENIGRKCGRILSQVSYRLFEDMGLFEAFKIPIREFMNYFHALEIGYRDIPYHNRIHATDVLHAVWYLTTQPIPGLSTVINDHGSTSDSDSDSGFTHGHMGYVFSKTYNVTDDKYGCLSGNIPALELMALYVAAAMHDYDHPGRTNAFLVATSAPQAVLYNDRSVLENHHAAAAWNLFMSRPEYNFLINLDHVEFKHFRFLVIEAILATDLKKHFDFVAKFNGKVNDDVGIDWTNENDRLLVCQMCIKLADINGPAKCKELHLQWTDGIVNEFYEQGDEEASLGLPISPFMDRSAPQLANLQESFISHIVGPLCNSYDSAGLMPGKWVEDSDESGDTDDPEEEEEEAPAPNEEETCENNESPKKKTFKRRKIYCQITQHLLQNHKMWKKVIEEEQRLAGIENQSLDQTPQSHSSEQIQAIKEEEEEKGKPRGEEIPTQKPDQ
Chain of Gamma-aminobutyric acid receptor subunit alpha-1 (P62813 whole entry): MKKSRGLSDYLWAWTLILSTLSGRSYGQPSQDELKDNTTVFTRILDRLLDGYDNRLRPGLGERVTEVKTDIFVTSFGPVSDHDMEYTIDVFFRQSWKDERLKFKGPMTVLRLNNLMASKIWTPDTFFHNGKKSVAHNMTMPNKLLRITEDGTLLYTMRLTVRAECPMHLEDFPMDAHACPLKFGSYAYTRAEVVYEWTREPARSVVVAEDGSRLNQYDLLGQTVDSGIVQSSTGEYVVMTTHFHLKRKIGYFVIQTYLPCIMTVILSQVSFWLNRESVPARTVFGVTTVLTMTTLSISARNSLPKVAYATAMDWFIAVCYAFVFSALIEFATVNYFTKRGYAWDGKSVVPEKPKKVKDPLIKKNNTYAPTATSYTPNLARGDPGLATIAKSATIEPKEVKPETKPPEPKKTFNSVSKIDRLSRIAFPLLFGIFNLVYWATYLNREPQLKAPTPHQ
Chain of 5-hydroxytryptamine receptor 2B (P41595 whole entry): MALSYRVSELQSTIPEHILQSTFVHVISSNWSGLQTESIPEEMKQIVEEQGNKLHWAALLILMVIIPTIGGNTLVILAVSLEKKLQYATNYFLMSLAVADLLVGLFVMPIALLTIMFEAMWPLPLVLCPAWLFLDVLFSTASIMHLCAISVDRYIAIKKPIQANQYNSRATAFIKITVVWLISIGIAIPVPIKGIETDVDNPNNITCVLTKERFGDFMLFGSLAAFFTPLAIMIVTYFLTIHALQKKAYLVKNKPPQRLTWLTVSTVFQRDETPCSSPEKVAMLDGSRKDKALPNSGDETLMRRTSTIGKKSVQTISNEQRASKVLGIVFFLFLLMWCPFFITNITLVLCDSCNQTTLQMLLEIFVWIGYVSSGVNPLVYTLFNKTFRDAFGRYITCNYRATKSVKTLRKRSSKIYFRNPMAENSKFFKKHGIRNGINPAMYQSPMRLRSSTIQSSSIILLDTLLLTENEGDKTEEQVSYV

The term AC50 denotes the concentration giving half of the maximal activity seen. `O=c1[nH]c2ccccc2n1CCN1CCN(c2cccc(C(F)(F)F)c2)CC1` [FLIBANSERIN]: the AC50 in assay [1] is 13 µM.
`NC(=O)C1(N2CCCCC2)CCN(CCCC(=O)c2ccc(F)cc2)CC1` [PIPAMPERONE]: the AC50 in assay [1] stood at 1.9 µM.
Take `COc1cccc2c1C(=O)c1c(O)c3c(c(O)c1C2=O)C[C@@](O)(C(=O)CO)C[C@@H]3O[C@H]1C[C@H](N)[C@H](O[C@@H]2CCCCO2)[C@H](C)O1` [PIRARUBICIN]: in assay [1], the half-maximal activity concentration (AC50) is over 30 µM.
Still for that read-out and setting: the value for `CCCCCCCCCCCCCCCC(=O)OC[C@H](COP(=O)([O-])OCC[N+](C)(C)C)OC(=O)CCCCCCCCCCCCCCC` [COLFOSCERIL PALMITATE] was over 30 µM; that for `N=C(N)NCC1COc2ccccc2O1` (stereo not drawn) [GUANOXAN] was over 30 µM.
The same measure, in the same setting: the value for `Cc1cccc(C)c1NC(=O)c1cc(S(N)(=O)=O)c(Cl)cc1O` [XIPAMIDE] was over 30 µM; that for `C=CCOc1ccc(CC(=O)O)cc1Cl` [ALCLOFENAC] was over 30 µM; that for `CN1CCN(C(c2ccccc2)c2ccc(Cl)cc2)CC1` (stereo not drawn) [CHLORCYCLIZINE] was 4.64 µM.
With `O=c1[nH]cc(F)c(=O)[nH]1` [FLUOROURACIL], the AC50 (in [2]; in assay [3]; in assay [1]; on Adenosine receptor A2a) was over 30 µM throughout.
In the case of `CO[C@@]1(NC(=O)C(C(=O)O)c2ccc(O)cc2)C(=O)N2C(C(=O)O)=C(CSc3nnnn3C)CO[C@@H]21` (stereo partly drawn) [MOXALACTAM], in assay [1], the half-maximal activity concentration (AC50) is over 30 µM.
Still for that read-out and setting: for `OC[C@H]1NC[C@H](O)[C@@H](O)[C@H]1O` the value was over 30 µM.
On the same count and under the same terms, for `O=P1(N(CCCl)CCCl)NCCCO1` (stereo not drawn) [CYCLOPHOSPHAMIDE ANHYDROUS] the value was over 30 µM; for `O=C(O)[C@@H](S)[C@@H](S)C(=O)O`, over 30 µM.
As to `CC#CC(=O)N1CCC[C@H]1c1nc(-c2ccc(C(=O)Nc3ccccn3)cc2)c2c(N)nccn12` [ACALABRUTINIB], the AC50 in assay [2] and in assay [1] was over 30 µM each time.
For `O=C1[C@@H]2[C@H]3CC[C@H](C3)[C@@H]2C(=O)N1C[C@@H]1CCCC[C@H]1CN1CCN(c2nsc3ccccc23)CC1` [LURASIDONE], the half-maximal activity concentration (AC50) in assay [4] was over 30 µM; in assay [5], over 30 µM; in assay [2], over 30 µM; in [6], over 30 µM; in assay [7] it was 0.071 µM; in assay [8], over 30 µM. Further, the AC50 (at Adenosine receptor A2a; in assay [9]) was over 30 µM each time.
As to `N#Cc1ccnc(N2C(=O)CC[C@H]2C(=O)N(c2cncc(F)c2)[C@H](C(=O)NC2CC(F)(F)C2)c2ccccc2Cl)c1` [IVOSIDENIB], the AC50 in assay [1] is over 30 µM.
Regarding `C#CCN(C)Cc1ccccc1` [PARGYLINE], the AC50 in [4], in assay [5], in assay [10], in assay [11], in assay [1] and in assay [7] was over 30 µM throughout. Further, the AC50 in assay [8] and in [9] was over 30 µM in each case.
For `CC(C)(Oc1ccc(Cl)cc1)C(=O)NC(=O)NCN1CCOCC1` [PLAFIBRIDE], the concentration at half-maximal activity (AC50) in assay [1] was over 30 µM.
The same measure, in the same setting: for `CCCCCCO[C@@H](C)c1cccc(-c2csc(NC(=O)c3cc(Cl)c(/C=C(\C)C(=O)O)c(Cl)c3)n2)c1OC` [LUSUTROMBOPAG] the value was 4.9 µM.
On to `O=C(Cc1cccs1)N[C@@H]1C(=O)N2C(C(=O)[O-])=C(C[n+]3ccccc3)CS[C@H]12` [CEPHALORIDINE], for which the half-maximal activity concentration (AC50) in assay [4], in assay [5], in assay [10], in assay [11], in [6] and in assay [1] was over 30 µM in each case. In addition, the AC50 in [7], in assay [8] and in assay [9] was over 30 µM in each case.
On to `CC(=O)NC[C@H]1CN(c2ccc(N3CCOCC3)c(F)c2)C(=O)O1` [LINEZOLID], for which the concentration at half-maximal activity (AC50) in assay [4], in assay [5], in [10], in assay [11], in assay [2] and in assay [6] was over 30 µM each time. For the same molecule, the AC50 (in [1]; in assay [8]; at Adenosine receptor A2a; in [9]) was over 30 µM each time.
With `CNC1(c2ccccc2Cl)CCCCC1=O` (stereo not drawn) [KETAMINE], the AC50 in assay [1] was over 30 µM.
Same read-out and setting: the value for `CC1=C(C/C=C(\C)CCC[C@H](C)CCC[C@H](C)CCCC(C)C)C(=O)c2ccccc2C1=O` [PHYTONADIONE] was over 30 µM; that for `CCCCCCCC/C=C\CCCCCCCC(=O)O` [OLEIC ACID] was over 30 µM.
Still for that read-out and setting: for `NC(=O)C1(N2CCCCC2)CCN(CCCN2c3ccccc3CCc3ccccc32)CC1` [CARPIPRAMINE] the value was 2.2 µM; for `CC(C)Nc1cccnc1N1CCN(C(=O)c2cc3cc(NS(C)(=O)=O)ccc3[nH]2)CC1` [DELAVIRDINE], 16 µM; for `CN1CCC(N(Cc2cccs2)c2ccccc2)CC1` [THENALIDINE], 2.9 µM.
The same measure, in the same setting: the value for `O=C(O)[C@H](O)[C@@H](O)[C@H](O)[C@H](O)CO` [GLUCONIC ACID] was over 30 µM; that for `CC(C)NC[C@H](O)COc1ccc(O)cc1` [PRENALTEROL] was over 30 µM.
On to `Cc1cc(C)cc(OCC2CNC(=O)O2)c1` (stereo not drawn) [METAXALONE], for which the concentration at half-maximal activity (AC50) in [1] is over 30 µM.
Regarding `Cc1ccc(C(C)C)c(O)c1` [THYMOL], the half-maximal activity concentration (AC50) in [2] was 120 µM; in assay [1], over 30 µM.
For the molecule `C[C@@H](CN1CC(=O)NC(=O)C1)N1CC(=O)NC(=O)C1` [DEXRAZOXANE], the concentration at half-maximal activity (AC50) in [1] is over 30 µM.
